Literature values, collected in patent US20140234397A1 (priority 2013, published 2014).
Read-outs that look alike come from different tables or passages of the source.

Columns and labels:
[1] = rat; for removal of toxin: radio-tagged metal (CO60) removed from the liver
[2] = humans

N[C@@H](CCC(=O)N[C@@H](CS)C(=O)NCC(=O)O)C(=O)O [Plain glutathione, glutathione]
toxin remaining ([1]; radio-tagged metal (CO60) in the liver): 100%
removal of toxin [1]: 0%
removal of toxin ([1]; listed as Intravenous glutathione): 64%
absorption after oral ingestion [2]: not absorbed
